Patent US20100260841A1, “Method of Treating Atherosclerosis, Dyslipidemias and Related Conditions” (priority 2007, published 2010)

Key:
[1] = tested on: extended-release niacin (ERN) induced flushing; conditions: patients
Method: (§1) Patients (N=412) were randomized to ERN 1 gram (given as Niaspan®, with no prior titration) plus compound E placebo, 18.75, 37.5, 75 or 150 mg, or double placebo for 4 weeks (acute phase) with doubling of the respective doses for the remaining 4 weeks (chronic phase). Patients reported flushing intensity using the validated Global Flushing Severity Score (GFSS); none/mild (0-3), moderate (4-6), severe (7-9) and extreme (10) in a daily eDiary. A subset of patients was randomized to compound E 150 mg versus placebo in a 4-week crossover safety study.

[2] = patients, Compound E alone or coadministered with ERN
Method: as §1

[3] = tested on: lipid altering effects of ERN; conditions: patients, Compound E 150 mg with ERN

CS(=O)(=O)c1cc(F)cc2c3c(n(Cc4ccc(Cl)cc4)c12)[C@@H](CC(=O)O)CC3 [Compound E]
acute phase flushing intensity compared to ERN alone ([1]; Compound E plus ERN 1 gram, first 4 weeks, GFSS, dose-response p<0.001): significantly lower | chronic phase flushing intensity compared to ERN alone ([1]; Compound E plus ERN, doubled doses, remaining 4 weeks, GFSS, dose-response p=0.021): significantly lower | tolerability and achievement of optimal therapeutic dosing of niacin ([1]; Compound E with ERN treatment): significantly improved | flushing intensity versus ERN alone at each coadministered dose ([1]; each coadministered dose of Compound E (18.75, 37.5, 75 or 150 mg), p<0.05): significantly (p<0.05) lower flushing intensity | incidence of adverse experiences [2]: low incidence | impact on the lipid altering effects of ERN [3]: did not significantly impact
